These results are taken from paper PMC6943638, “Lectin PLL3, a Novel Monomeric Member of the Seven-Bladed β-Propeller Lectin Family” (Molecules, 2019).

The target in assay [1] is T1, PLL3 (Photorhabdus laumondii subsp. laumondii, UniProt Q7N8I7). The assay can be described thus: SPR inhibition test on immobilized OMeDis. The format is binding. The method, then: (§1) SPR experiments were performed in a BIAcore T200 instrument (GE Healthcare, UK) using a four-channel sensor chip CM5 with a carboxymethyldextran surface layer (GE Healthcare, UK). Saccharides were immobilized on the chip surface using the procedure as described elsewhere. Immobilization was performed in the HBS buffer (10 mM HEPES, 150 mM NaCl, 0.05% Tween 20, pH 7.5) at a flow rate of 10 μL min^−1. For OMeDis immobilization, the surface of the channel was activated with N-hydroxysuccinimide/N-ethyl-N-(3-dimethylaminopropyl)carbodiimide solution (NHS/EDC) and subsequently OMeDis covalently modified by linker (-O-(p-C6H4)-OCH2CH2NH2) in HBS was injected. The final response of immobilized OMeDis was 136 RU. Non-reacted groups were blocked by 1 M ethanolamine/HCl (pH 8.5). A corresponding blank channel was prepared the same way, omitting the ligand injection. […] Biotinylated α-L-fucoside was injected onto this channel to the final response of 63 RU. A corresponding blank channel was prepared the same way without the injection of biotinylated fucoside.
SPR inhibition tests were carried out on a channel with immobilized OMeDis using the same buffer and flow rate values as those for the binding studies. The final concentration of the lectin was 20 μM. PLL3 was mixed with serially diluted saccharides (50–0.05 mM for L-fucose; 12.5–0.013 mM for αMeFuc; 200–0.2 mM for 3-O-methyl-D-glucose; and 400–0.4 mM for D-glucose and D-galactose) and injected onto the chip. The lectin sample without ligand was used as a control with 0% inhibition effect. The response of blank channel as well as the response of corresponding saccharides were subtracted from the response of lectin bound to the OMeDis surface at equilibrium. A final response was plotted against the concentration of inhibitor in order to determine IC50 (concentration of inhibitor resulting in 50% inhibition of binding).

For assay [2], the target named is T1, PLL3. Put plainly: Isothermal titration calorimetry (ITC). The format is binding. The procedure:
ITC experiments were carried out using an AutoITC200 calorimeter (Malvern, UK) at 25 °C. The purified lectin was dialyzed against 20 mM Tris/HCl, 150 mM NaCl, pH 7.5 buffer before measurements. Individual ligands (L-fucose, αMeFuc, D-galactose, D-glucose, 3-O-methyl-D-glucose, and decavalent fucosylated glycoclusters 4a and 4b) were dissolved in the same buffer. PLL3 (100 μM) in the cell was titrated by the successive addition (2.0 μL) of the ligand in the syringe (20 mM for monosaccharides, 1 mM for multivalent fucosides). Experiments with monosaccharides were performed at stirring 750 rpm with a reference power of 10 μcal s^−1. Experiments with multivalent fucosides were performed at stirring 500 rpm with a reference power of 6 μcal s^−1. Titrations were carried out in three independent measurements for each ligand. Blank measurements were subtracted from collected data. For multivalent fucosides, two blank measurements were performed: titration of the buffer into the cell with PLL3 and titration of the buffer into the buffer. For monosaccharides, the additional blank measurement, the titration of a given ligand into the cell with buffer, was performed. The data were evaluated in software MicroCal PEAQ-ITC Analysis Software (Malvern, UK) by using the global fit method. Integrated heat effects were analyzed by nonlinear regression.
(Isothermal titration calorimetry measures the heat released or taken up as one component is titrated into another.)

Assay [3] addresses T1, PLL3. Put plainly: Hemagglutination inhibition assay (PLL3 with erythrocytes of blood group O). The format is cell-based. To be noted: PLL3 50 μM; for inhibition of hemagglutination: blood group O erythrocytes, saccharide 100 to 0.1 mM; for minimal inhibitory concentration (MIC) of hemagglutination: erythrocytes of blood group O 10% (v/v). The method, then:
For the hemagglutination inhibition assay, the PLL3 was mixed with serially diluted saccharides (L-fucose, αMeFuc, D-galactose, D-glucose, and 3-O-methyl-D-glucose) dissolved in PBS buffer, and mixtures were incubated for 15 min at room temperature. Subsequently, erythrocytes of blood group O were added into the mixture with following incubation for 15 min. The final concentration was 50 μM for the PLL3 and 10% (v/v) for erythrocytes. Concentrations of L-fucose and αMeFuc ranged from 50 to 0.05 mM. Concentrations of D-galactose, D-glucose, and 3-O-methyl-D-glucose ranged from 100 to 0.1 mM. Each sample was observed under the optical microscope (Olympus IX81 with camera DP72; 200x magnification; SW CellSens Dimension, Olympus corporation, Tokyo, Japan).

In assay [4] the target is T1, PLL3. Put plainly: Surface plasmon resonance, apparent KD on immobilized glycans. The format is binding. Particulars: SPR, immobilized glycan, PLL3 100 to 0.195 μM, steady-state. The method, then:
as §1
(§2) Between individual injections, the channels were regenerated by 50 mM NaOH for 30 s. The experiment was run at a flow rate of 30 μL min^−1 and a contact time of 120 s. The concentration of PLL3 ranged from 100 μM to 0.195 μM. An apparent KD was calculated in BIAevaluation software using the steady-state approach.
A general note: SPR reads the build-up and loss of mass on a sensor chip optically.

The target in assay [5] is T1, PLL3. Put plainly: Glycan array screening with DyLight 488-labeled PLL3. Particulars: PLL3 200 μg mL^-1, hexaplicates. The format is binding. The source says: Purified PLL3 protein was labeled with DyLight 488 NHS Ester (Thermo Scientific, Rockford, MI, USA) according to the manual instructions of the manufacturer. The unbound dye was removed from the solution using the Zeba Spin Desalting Column (Thermo scientific). The labeled lectin was used for glycan array screening using a glycan microarray chip (Semiotik, Moscow, Russia; chip format OSPS280715; slide number 10085636) containing over 600 mammalian and bacterial glycans (all in hexaplicates). The glycan microarray chip was incubated in 1.0 mL of PBS buffer supplemented with 0.1% (v/v) Tween 20 and placed in a humid chamber for 15 min (37 °C, 40 rpm). Then, the buffer was replaced by 0.5 mL PLL3 (200 μg mL^−1) diluted in PBS buffer with 0.1% Tween 20 and 1% (w/v) bovine serum albumin (Serva, Germany). After incubation (90 min, 37 °C, 40 rpm), the chip was washed by decreasing concentrations of PBS with 0.1% Tween 20, followed by multiple immersions in ultrapure water. Subsequently, the chip was dried by air blow. Fluorescence was read with a scanner InnoScan 1100 AL (Innopsys, Carbonne, France) with a 488 nm laser at 20 °C. The data were analyzed with the software Mapix 8.2.2 and an online glycan chip converter (Semiotik, https://rakitko.shinyapps.io/semiotik). The relative fluorescent response of PLL3 binding was calculated from hexaplicates of each glycan immobilized onto the chip. Only glycans with a response three or more times higher than trehalose and concurrently with a signal-to-noise ratio higher than two were considered as significant binders.

In assay [6] the test system is PLL3. The assay can be described thus: Surface plasmon resonance, apparent KD on immobilized glycans. The format is binding, Photorhabdus laumondii subsp. laumondii. Particulars: PLL3 compared with PLL2 and PHL of ref 17. The procedure:
as §1, §2

Setting [7] is: stoichiometry fixed to 3, 25 °C, read-out: KD.
Setting [8] is: stoichiometry fixed to 4, 25 °C, read-out: KD.
Where [9] appears, read: stoichiometry fixed to 5, 25 °C, read-out: KD.
[10] abbreviates: stoichiometry fixed to 6, 25 °C, read-out: KD.
[11] abbreviates: stoichiometry fixed to 7, 25 °C, read-out: KD.

Where two headings read alike, the source gives them in different places.

T1 sequence (Q7N8I7 entry or part of it): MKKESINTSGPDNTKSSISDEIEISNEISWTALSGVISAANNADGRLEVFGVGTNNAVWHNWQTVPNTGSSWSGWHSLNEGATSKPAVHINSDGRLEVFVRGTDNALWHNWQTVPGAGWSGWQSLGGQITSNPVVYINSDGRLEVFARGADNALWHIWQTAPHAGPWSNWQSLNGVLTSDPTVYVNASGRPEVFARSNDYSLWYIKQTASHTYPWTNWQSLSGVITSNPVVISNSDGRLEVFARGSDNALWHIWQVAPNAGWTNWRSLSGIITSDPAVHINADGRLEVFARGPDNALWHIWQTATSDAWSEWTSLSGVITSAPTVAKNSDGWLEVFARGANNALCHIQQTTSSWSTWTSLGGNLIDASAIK

On to `CO[C@@H]([C@H](O)[C@H](O)CO)[C@@H](O)C=O` [3-O-methyl-D-glucose], for which, on PLL3 [1], half-maximal inhibition (IC50) required 26.4 ± 2.84 mM. Besides, the Kd on PLL3 [2] (setting [7]) was 11.3 ± 1.55 mM; on PLL3 [2] (setting [8]), 11.1 ± 1.5 mM; at PLL3 [2] (setting [9]) it was 10.9 ± 1.5 mM; on PLL3 [2] (setting [10]), 10.7 ± 1.5 mM; at PLL3 [2] (setting [11]), 10.4 ± 1.45 mM; on PLL3 [2] (text summary over stoichiometry fixed 3 to 7, read-out: KD values) it was above 10.4 mM. For the same molecule, the inhibition of hemagglutination entry at PLL3 [3] is given as “did not inhibit hemagglutination”.

For the molecule α-L-fucoside, the Kd at PLL3 [4] amounted to 0.322 ± 0.086 mM. At PLL3 [5], the “glycan array response relative to trehalose (negative control)” value is given as around 20 fold.

`OC[C@H]1OC(O)[C@H](O)[C@@H](O)[C@@H]1O` (stereo partly drawn) [D-glucose]: the inhibitory effect result on PLL3 [1] (PLL3 20 μM, immobilized OMeDis, highest concentration used 400 mM) is given as “did not exhibit any inhibitory effect”. Moreover, the Kd on PLL3 [2] (setting [7]) turned out to be 3.7 ± 0.08 mM; at PLL3 [2] (setting [8]), 3.6 ± 0.08 mM; at PLL3 [2] (setting [9]) it was 3.4 ± 0.08 mM; on PLL3 [2] (setting [10]), 3.3 ± 0.07 mM; at PLL3 [2] (setting [11]) it was 3.1 ± 0.07 mM. In addition, the inhibition of hemagglutination entry at PLL3 [3] was “did not inhibit hemagglutination”.

As to `CO[C@@H]1O[C@@H](C)[C@@H](O)[C@@H](O)[C@@H]1O` [methyl α-L-fucopyranoside], at PLL3 [1] (inhibition of interaction between PLL3 (20 μM) and immobilized OMeDis, read-out: IC50), the IC50 (commonly the concentration that inhibits the measured activity by half) was determined as 1.04 ± 0.05 mM. Also, the Kd at PLL3 [2] (setting [7]) worked out at 0.7 ± 0.02 mM; on PLL3 [2] (setting [8]), 0.7 ± 0.03 mM; at PLL3 [2] (setting [9]), 0.6 ± 0.03 mM; on PLL3 [2] (setting [10]), 0.6 ± 0.03 mM; at PLL3 [2] (setting [11]) it was 0.6 ± 0.03 mM. Also, on PLL3 [3], the “minimal inhibitory concentration (MIC) of hemagglutination” value was found to be 780 µM.

“3,6-O-Me2-Glcβ1-4(2,3-O-Me2)Rhaα [OMeDis]”: the “interaction with immobilized OMeDis, fold weaker than for PLL2 and PHL” value in the assay with PLL3 [6] was 10^5 fold. Further, the Kd on PLL3 [4] was determined as 0.607 ± 0.046 mM.

In the case of `C[C@H](O)[C@@H](O)[C@@H](O)[C@H](O)C=O` [L-fucose], the IC50 against PLL3 [1] came to 2.51 ± 0.09 mM. Besides, the Kd came to 3.4 ± 0.12 mM at PLL3 [2] (setting [7]); 3.3 ± 0.12 mM on PLL3 [2] (setting [8]); 3.2 ± 0.11 mM at PLL3 [2] (setting [9]); 3.1 ± 0.1 mM at PLL3 [2] (setting [10]); 3 ± 0.09 mM at PLL3 [2] (setting [11]). Besides, the “minimal inhibitory concentration (MIC) of hemagglutination” value on PLL3 [3] is 1560 µM.
